Experimental data published in patent US8609135B2, “Anthracycline derivatives” (Nuclisome AB, priority 2004, dated 2013).
Like-named read-outs stand apart in the source and are kept apart here.

Legend:
calf thymus DNA (CT DNA) [1] = experiment: Fluorescence titration, binding to calf thymus DNA; conditions: room temperature, BPES buffer pH 7, n=3
Procedure: Type 1 calf thymus DNA sodium salt (Sigma-Aldrich Co., St Louis, M.O., USA) was hydrated in BPES buffer (6 mM Na2HPO4, 2 mM NaH2PO4, 1 mM EDTA, 185 mM NaCl, pH 7) at a concentration of approximately 2 mg/ml and sonicated at approximately 8 μA in a MSE Soniprep 150 ultrasonic disintegrator (Integrated Services TCP Inc., Palisades Park, N.J., USA) for 30 min in a water bath on ice. The sample was then dialyzed for 48 h against BPES using Slide-A-Lyzer® dialysis cassettes (10,000 MWCO) (Pierce, Rockford, Ill., USA). The final DNA concentration was determined spectrophotometrically on a HP8453 spectrophotometer (Hewlett-Packard Company Houston Tex., USA) at a wavelength of 260 nm using an extinction coefficient of 12,824 M (bp)^−1 cm^−1.
Fluorescence titration experiments were performed on a SPEX 1680 Fluorolog spectrofluorometer (SPEX Industries Inc., Edison, N.J., USA) at room temperature with λex=480 nm (slid width 2.5 mm) and λem=592 nm (slid width 2.5 mm). The initial free drug concentration was 1 μM. […] The concentration of bound drug was calculated by the difference between CT and Cf. Binding constants (Ki) and exclusion parameters (n) were calculated by plotting r/Cf versus r (Scatchard plot), where r is the number of moles of bound drug per mol DNA base pairs. Theoretical curves for the neighbor exclusion model were calculated by using the algorithm: r/Cf=Ki(1−nr)[(1−nr)/[1−(n−1)r]]^n−1 (J. Mol. Biol. 86, 469-489, 1974)
where Ki (M^−1) is the intrinsic binding constant and n (base pairs) is the exclusion parameter. The parameters Ki and n were varied to generate theoretical curves that closest fitted the experimental data.

[2] = Dissolution of drug in 10% (wt/vol) sucrose solution; assay type: physicochemical; conditions: 0.5 mM in 10% (wt/vol) sucrose solution
Procedure: Compound 1 (3′-N-(4-hydroxy-3-iodobenzyl)-13-(R/S)-dihydrodaunorubicin, stereoisomeric mixture) and Compound 2 (3′-N-(4-Hydroxy-3-iodobenzyl)daunorubicin), structures are shown below, or doxorubicin (Sigma Aldrich, St. Louis, Mo., USA) were encapsulated into liposomes using the pH-gradient driven loading protocol by Mayer et al. The pH gradient across the liposome membrane was generated by exchanging the extravesicular 300 mM citrate buffer (pH 4) with 20 mM N-[2-hydroxyethyl]piperazine-N′-[2-ethanesulfonic acid] (HEPES) buffered 150 mM saline (HBS) (pH 7.5) on a Sephadex G-50 column. Doxorubicin was dissolved in HBS at a concentration of 1 mM. Compound 1 was dissolved at a concentration of 0.5 mM in 10% (wt/vol) sucrose solution. […] A preheated drug solution was added to the liposomes at a 0.2 drug-to-lipid molar ratio. The mixture was incubated for 15 min at a temperature of 60° C. with intermittent mixing using a Vortex-apparatus resulting in 100% drug encapsulation.

calf thymus DNA (CT DNA) [3] = conditions: literature values; cited from earlier work
SKBR-3 cells = experiment: Growth curves of SKBR-3 cells (toxicity); assay type: cell-based, human; conditions: SKBR-3 cell monolayers, 0.5 ng/ml, 2.5 h incubation
Procedure: Growth curves^125I-Compound 1, Compound 1, doxorubicin, or daunorubicin were dissolved in culture media to a concentration of 0.5 ng/ml. The specific activity of ^125I-Compound 1 was 100 kBq/ng. SKBR-3 cells were incubated with drug in 60 mm plastic Petri dishes as triplicates, for 2.5 h. Control-cells were incubated with ordinary culture medium. After incubation, the medium was removed from all dishes and cells were washed six times with serum-free medium. Cells were detached from dishes by adding 0.5 ml of trypsin/EDTA for 10 min at a temperature of 37° C. After re-suspension in 1 ml of culture media cells were counted using a coulter counter (Z2 Coulter Counter, Beckman Coulter) and sub-cultivated to 10^5 cells to generate growth curves. Growth curves were corrected for loss of cells at each sub-cultivation.

[4] = test system: human tumour A431 cells (squamous carcinoma); experiment: Binding of 125I-Compound 1 to permealised A431 cells (gamma counter, fluorescence microscopy); assay type: cell-based
Procedure: Human cultured tumour cells […] were grown as monolayer cultures using Ham's F-10 medium (Biochrom AG, Berlin, Germany) containing 10% fetal calf serum, glutamine (2 mM), streptomycin (100 μg/ml), and penicillin (100 IU/ml) at a temperature of 37° C. in a humidified 5% CO2 incubator.
Cultured human tumour A431 cells (squamous carcinoma) were grown on glass slides, cooled to a temperature of 4° C., and washed with phosphate buffer. Cells were inactivated in methanol for 15 minutes at a temperature of −20° C. and then quickly washed at a temperature of 4° C. with phosphate buffer. Cells were thereafter permealised by acetone treatment for 10 seconds at a temperature of 4° C. After drying cells were incubated with ^125I-Compound 1 at room temperature for one hour, washed, and analyzed for radioactivity using a gamma counter (1480 Wallac Wizard, Perkin Elmer, Wellesley, Mass., USA). In addition, cells were inspected by fluorescence microscopy.

[5] = Drug retention in liposomes; assay type: physicochemical; conditions: incubated in medium at 37° C. for 24 h
Procedure: Liposomes were composed of 1,2-distearoyl-sn-glycero-3-phosphatidyl-choline (DSPC), cholesterol, 1,2-distearoyl-sn-glycero-3-phosphatidyl-ethanolamine-N-[methoxy (poly-ethyleneglycol)-2000 (DSPE-PEG2000) at a molar ratio of 57:40:3. Liposomes were prepared by the lipid film hydration method. Briefly, cholesterol and lipids were dissolved in chloroform. The solvent was evaporated under a gentle stream of nitrogen gas and the lipid film was dried under vacuum overnight. The lipid film was hydrated with 300 mM citrate buffer (pH 4) for 1 h with intermediate vortex mixing at a lipid concentration of 20 mM at a temperature of 60° C. Liposomes were repetitively frozen in liquid nitrogen and thawed at a temperature of 60° C. five times before extrusion. Liposomes were extruded ten times through two stacked polycarbonate membranes filters (Whatman Inc. Nucleopore, Newton, Mass.) with a pore size of 100 nm at a room temperature using an Avanti Mini-extruder (Avanti Polar Lipids Inc., Alabaster, Ala.). […]
Liposomes were incubated at temperatures of 37° C. or 60° C. […] The fluorescence intensity of samples was determined at an excitation wavelength of 468 nm and an emission wavelength of 589 nm. The percentage of encapsulated drug after incubation was determined relative to the amount of encapsulated drug before incubation.

[6] = cited from earlier work
[7] = test system: thyroid cancer, lymphomas, bladder carcinomas, sarcomas, ovarian carcinomas, leukemias; conditions: cited from earlier work

SMILES | n (exclusion parameter) (calf thymus DNA (CT DNA) [1]) | dissolution of drug [2] | n (exclusion parameter), literature value (calf thymus DNA (CT DNA) [3]) | cytotoxic effect (growth curves) (SKBR-3 cells) | localisation in cells by fluorescence microscopy [4] | drug remaining encapsulated in liposomes [5] | cardiac toxicity up to congestive heart failure, share of patients ([6]; patients) | side effect alopecia, share of patients ([6]; patients) | side effect nausea and vomiting, share of patients ([6]; patients) | acute dose-limiting toxicity: bone-marrow suppression, leukopenia, and stomatitis, share of treated patients ([6]; treated patients) | overall response rate ([7]; bladder carcinomas) | overall response rate ([7]; leukemias) | overall response rate ([7]; lymphomas) | overall response rate ([7]; ovarian carcinomas) | overall response rate ([7]; sarcomas) | overall response rate ([7]; thyroid cancer)
COc1cccc2c1C(=O)c1c(O)c3c(c(O)c1C2=O)C[C@@](O)(C(C)=O)C[C@@H]3O[C@H]1C[C@@H](NCc2ccc(O)c(I)c2)[C@H](O)C(C)O1 (some centres unmarked) [Compound 2, 3′-N-(4-Hydroxy-3-iodobenzyl)daunorubicin] | 3.7 base pairs | did not dissolve completely | – | – | – | – | – | – | – | – | – | – | – | – | – | –
COc1cccc2c1C(=O)c1c(O)c3c(c(O)c1C2=O)C[C@@](O)(C(C)=O)C[C@@H]3O[C@H]1C[C@H](N)[C@H](O)[C@H](C)O1 [daunorubicin, Daunorubicin] | 3.6 base pairs | – | 3.5 base pairs | Neither of the latter compounds had any significant cytotoxic effect | – | – | – | – | – | – | – | – | – | – | – | –
COc1cccc2c1C(=O)c1c(O)c3c(c(O)c1C2=O)C[C@@](O)(C(C)O)C[C@@H]3O[C@H]1C[C@@H](NCc2ccc(O)c(I)c2)[C@H](O)C(C)O1 (mixture of isomers) [Compound 1, 3′-N-(4-hydroxy-3-iodobenzyl)-13-(R/S)-dihydrodaunorubicin] | 3.4 base pairs | – | – | Neither of the latter compounds had any significant cytotoxic effect | bound to the cell nucleus and not located inside the cytoplasm | more than 90% | – | – | – | – | – | – | – | – | – | –
COc1cccc2c1C(=O)c1c(O)c3c(c(O)c1C2=O)C[C@@](O)(C(=O)CO)C[C@@H]3O[C@H]1C[C@H](N)[C@H](O)[C@H](C)O1 [doxorubicin, Doxorubicin] | 3.9 base pairs | – | 3.8 base pairs | Neither of the latter compounds had any significant cytotoxic effect | – | Approximately 80% | 1-10% | 100% | 20-55% | 80% | 33% | 24% | 41% | 25% | 26% | 45%
